According to US20020115661A1, “Method for treating chronic obstructive pulmonary disease” (priority 2000, published 2002):
Where two headings read alike, the source gives them in different places.

What was measured:
[1] = system: healthy subjects; assay: Tolerance and safety in Phase 1 studies in healthy subjects; assay type: in vivo, human
[2] = Distribution, plasma protein binding and excretion; assay type: in vivo
[3] = Food effect (high-fat meal) single-dose study in healthy subjects; assay type: in vivo, human; conditions: for Tmax: human, plasma, oral, 150 mg
[4] = Dissociation constant by potentiometric titration in water; assay type: physicochemical; conditions: carboxylic acid group, read-out: apparent pKa
[5] = biological target: T1, dog ETB receptors (Canis lupus familiaris, UniProt P56497); assay: [125I]ET-3 binding, membranes from dog cerebellum
T1 construct: from tissue
T1 sequence (P56497 27-442): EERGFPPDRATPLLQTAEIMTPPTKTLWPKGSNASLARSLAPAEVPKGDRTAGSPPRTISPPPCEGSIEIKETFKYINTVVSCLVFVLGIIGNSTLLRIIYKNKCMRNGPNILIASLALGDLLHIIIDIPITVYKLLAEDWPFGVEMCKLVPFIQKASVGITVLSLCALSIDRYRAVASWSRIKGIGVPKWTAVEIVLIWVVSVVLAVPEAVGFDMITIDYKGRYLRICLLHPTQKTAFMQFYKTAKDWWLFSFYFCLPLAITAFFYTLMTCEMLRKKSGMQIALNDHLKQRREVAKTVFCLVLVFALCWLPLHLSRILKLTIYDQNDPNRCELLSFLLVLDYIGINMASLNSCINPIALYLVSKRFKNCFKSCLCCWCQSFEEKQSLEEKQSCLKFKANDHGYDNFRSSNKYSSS
From the text: (§1) Relative binding activities are given below in TABLE 3.

[6] = Thermal properties, hygroscopicity and stability; assay type: physicochemical
[7] = PO bioavailability in monkeys; conditions: monkey, in vivo
[8] = biological target: T2, rat ETA receptors (Rattus norvegicus, UniProt P26684); assay: [125I]ET-1 binding, membranes from rat A10 cells
T2 construct: endogenous in cells
T2 sequence (P26684 21-426): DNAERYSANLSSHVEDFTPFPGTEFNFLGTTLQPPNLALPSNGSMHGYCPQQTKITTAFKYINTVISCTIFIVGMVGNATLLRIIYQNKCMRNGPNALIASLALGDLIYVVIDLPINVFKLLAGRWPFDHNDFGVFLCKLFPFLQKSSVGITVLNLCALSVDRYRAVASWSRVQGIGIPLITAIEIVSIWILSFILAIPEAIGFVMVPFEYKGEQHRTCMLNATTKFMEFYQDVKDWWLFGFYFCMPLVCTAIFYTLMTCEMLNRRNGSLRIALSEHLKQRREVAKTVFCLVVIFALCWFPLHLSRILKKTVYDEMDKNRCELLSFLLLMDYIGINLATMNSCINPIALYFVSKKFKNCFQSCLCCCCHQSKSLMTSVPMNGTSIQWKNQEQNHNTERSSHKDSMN
From the text: as §1

[9] = biological target: T3, ETA receptor (Oryctolagus cuniculus, UniProt A5A8K3); assay: ET-1 induced contraction in isolated rabbit femoral artery
T3 sequence (A5A8K3 21-427): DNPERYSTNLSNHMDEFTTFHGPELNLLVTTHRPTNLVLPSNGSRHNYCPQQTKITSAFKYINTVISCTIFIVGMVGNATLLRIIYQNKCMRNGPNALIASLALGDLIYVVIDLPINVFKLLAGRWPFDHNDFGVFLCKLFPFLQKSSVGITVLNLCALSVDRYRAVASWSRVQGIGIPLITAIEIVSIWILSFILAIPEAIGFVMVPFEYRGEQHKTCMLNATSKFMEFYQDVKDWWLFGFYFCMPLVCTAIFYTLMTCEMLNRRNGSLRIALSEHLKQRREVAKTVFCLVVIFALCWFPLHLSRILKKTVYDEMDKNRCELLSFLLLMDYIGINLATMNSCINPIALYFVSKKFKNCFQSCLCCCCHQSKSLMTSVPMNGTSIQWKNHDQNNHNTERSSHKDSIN
Protocol: In rabbit femoral artery vasculature, the receptor responsible for mediating the contractile activity of ET-1 appears to be predominantly the ETA receptor subtype, whereas in the rabbit pulmonary artery the contractile activity of ET-1 appears to be mediated by both ETA and ETB receptors.
In rabbit femoral and pulmonary arteries, ET-1 produced concentration-dependent increases in contractile tension starting at 1 nM.

[10] = Oral rising single-dose pharmacokinetic study in healthy subjects; assay type: in vivo, human
[11] = biological target: T4, rat ETB receptors (Rattus norvegicus, UniProt P21451); assay: [125I]ET-3 binding, membranes from rat cerebellum
T4 construct: from tissue
T4 sequence (P21451 27-442): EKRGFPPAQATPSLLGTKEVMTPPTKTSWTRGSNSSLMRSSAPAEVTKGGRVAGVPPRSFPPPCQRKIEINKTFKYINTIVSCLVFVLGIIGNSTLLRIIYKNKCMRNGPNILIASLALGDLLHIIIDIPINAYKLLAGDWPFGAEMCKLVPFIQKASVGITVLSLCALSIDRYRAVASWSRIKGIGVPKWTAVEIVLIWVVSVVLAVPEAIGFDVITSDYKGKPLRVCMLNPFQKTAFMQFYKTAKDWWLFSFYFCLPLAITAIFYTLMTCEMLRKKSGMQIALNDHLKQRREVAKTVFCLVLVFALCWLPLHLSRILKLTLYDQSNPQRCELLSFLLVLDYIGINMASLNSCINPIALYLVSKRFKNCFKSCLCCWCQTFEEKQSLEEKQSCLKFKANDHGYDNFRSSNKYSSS
From the text: as §1

[12] = Pharmacokinetics in dogs; assay type: in vivo; conditions: dog

CCc1cc(C2=C(C(=O)[O-])N(c3ccccc3C(F)(F)F)S(=O)(=O)c3ccccc32)cc2c1OCO2.[K+] [CI-1034, 4-(7-Ethyl-1,3-benzodioxol-5-yl)-2-[2-(trifluoromethyl)phenyl]-2H-1 ,2-benzothiazine-3-carboxylic acid 1,1-dioxide monopotassium salt]
QTc intervals [1]: No prolonged QTc intervals | most frequent adverse events [1]: headache, somnolence, nausea, and dyspepsia | serious adverse events [1]: no treatment-related serious adverse events | changes in C-reactive protein ([1]; Study 1034-001): no significant changes | tolerance ([1]; single 400 mg dose with single 2-mg dose of midazolam syrup, Study 1034-005): well-tolerated | tolerance ([1]; single 150-mg doses with or without a high-fat breakfast, Study 1034-004): well-tolerated | tolerance ([1]; single doses up to 400 mg, Study 1034-001): well-tolerated | laboratory abnormalities ([1]; sporadic and transient): unrelated to CI-1034 administration | intensity of adverse reactions ([1]; transient): mild or moderate | tissue distribution of radioequivalents ([2]; highest concentrations in liver and blood): not widely distributed | plasma protein binding ([2]; in vivo): highly bound | Tmax ([3]; fasted state): 1.26 h | Tmax ([3]; with high-fat meal): 3.5 h | mean AUC(0-∞) lower with high-fat breakfast versus fasted ([3]; single dose): approximately 16% | mean Cmax lower with high-fat breakfast versus fasted ([3]; single dose): approximately 50% | pKa [4]: 3.9 | IC50 [5]: 0.329 µM | Hygroscopicity [6]: Hygroscopicity: CI-1034 is moderately hygroscopic. | Stability on storage ([6]; 4 weeks at 80° C. or 40° C. and 70% relative humidity): CI-1034 was stable for 4 weeks when stored at 80 °C or 40 °C and 70% relative humidity. CI-1034 does not need special storage requirements, other than the usual protection from light. | thermally stable up to ([6]; begins to melt with decomposition): Thermal Properties: CI-1034 is thermally stable up to approximately 300° C., where it begins to melt with decomposition. | Stability ([6]; exposed to hydrogen peroxide): No significant degradation | Stability ([6]; exposed to simulated sunlight): # peroxide. In contrast, samples exposed to simulated sunlight showed degradation. | Stability ([6]; heated in acid, base, or water, protected from light): stable | bioavailability [7]: ~10% | IC50 [8]: 0.0033 µM | potency at blocking ETA versus ETB receptor signaling ([9]; isolated rabbit vasculature, femoral versus pulmonary artery KB): 389 fold | effect on ET-1 induced maximal contraction ([9]; rabbit femoral artery): not affected | Schild regression slope ([9]; rabbit femoral artery, r=0.99): 0.88 | Renal excretion of unchanged CI-1034 ([10]; Study 1034-001): < 3 % of the dose | half-life ([10]; human, plasma, oral, 400-mg dose, read-out: additional elimination half-life (converted)): ~13 h | half-life ([10]; human, plasma, single oral doses, Study 1034-001, read-out: elimination half-life (t½)): 2 to 4 h | Tmax ([10]; human, plasma, single oral doses, Study 1034-001, read-out: time to maximal plasma concentrations (tmax)): 1 to 3 h | Cmax and AUC(0-∞) with increasing dose ([10]; single oral doses): slightly more than proportional increases | IC50 [11]: 0.23 µM | bioavailability ([12]; in vivo, po, dogs): ~100% | increase of plasma concentrations with dose ([12]; up to 100 mg/kg): approximately proportional to dose
